Results published in patent US20030134779A1, “Method and composition for treatment and/or prevention of antibiotic-resistant microorganism infections” (priority 2002, published 2003).

How the values were obtained:
S. aureus PC-1 [1] = test: Cell morphology by transmission electron microscopy; assay type: cell-based, Staphylococcus aureus; settings: penicillin G 8 μg/ml alone; 4-h
Procedure: (§1) Bacterial cells were grown overnight on MHA or MHB containing sub-MICs of penicillin G with or without LF or LFC. Microorganisms were prepared for transmission electron microscopy by fixation with glutaraldehyde followed by ferritin labelling. This method allows good- preservation of capsular material. Briefly, bacterial cells grown in the presence or absence of antibiotics were fixed in cacodylate buffer (0.1 M, pH 7.0) containing 5% (v/v) glutaraldehyde, for 2 h at 20° C. Fixed microorganims were suspended in cacodylate buffer and allowed to react with the polycationic ferritin (Sigma Chemicals, St-Louis, Mo.; final concentration 1.0 mg/ml) for 30 min at 20° C. The reaction was slowed down by 10-fold dilution with buffer, and the microorganisms were centrifuged and washed three times in cacodylate buffer. Bacterial cells were then immobilized in 4% (w/v) agar, washed 5 times in cacodylate buffer and post-fixed with 2% (w/v) osmium tetroxide for 2 h. Washings were repeated as above, and the samples dehydrated in a graded series of acetone washes. Samples were then washed twice in propylene oxide and embedded in Spurr low-viscosity resin. Thin sections were post-stained with uranyl acetate and lead citrate and examined with an electron microscope (Philips 201) at an accelerating voltage of 60 kV.
Bacterial cells of PC-1 (a constitutively high producing β-lactamase strain) were grown overnight in MHB containing 8 μg/ml of penicillin G, 16 μg/ml of LFC alone or in combination for 4-h at 37° C. with agitation at 150 rpm. Bacteria cell morphology was evaluated by transmission electron microscopy after fixation and ferritin labelling method as previously described.

S. aureus PC-1 [2] = test: Bacterial growth in MHB; assay type: cell-based, Staphylococcus aureus
Procedure: (§2) The effect of LF or LFC at concentration sub-MICs alone or in combination with sub-MICs of antibiotics on bacterial growth rate of S. aureus, E. coli and K. pneumoniae was determined by monitoring bacterial cultures in MHB with the O.D.600 nm or by the count of colony forming unit per ml (cfu/ml). A volume of 2.5 ml of overnight cultures in MHB adjusted to 0.5-1 McFarland standard in saline were used to inoculate a final volume of 25 ml of fresh MHB containing the desired concentration of tested compounds. All flasks were then incubated at 37° C. with agitation (200 rpm) for 9 h. Aliquots were removed every hour to determine the culture turbidity using the spectrophotometer Philips PU 8800 (Pye Unican Ltd, Cambridge, UK). The combined antibiotic effect on bacterial growth was also determined using concentrations of LF in the presence of different concentrations of antibiotics. Briefly, a volume of 3 ml of fresh MHB containing desired concentration of drugs was adjusted to an optical density of 0.4 at 540 nm after an overnight culture. The culture was then incubated at 37° C with agitation (200 rpm). After incubation, aliquots were removed to determine the culture turbidity (OD540nm) or cfu/ml. To determine the influence of the level of iron on of the growth inhibition by the test compound, 5 μM of FeCl3 were added to the media.

S. aureus ATCC 25923 [3] = test: Bacterial growth in MHB; assay type: cell-based, Staphylococcus aureus
Procedure: as §2

[4] = test system: S. aureus strains SHY97-4242 and RFT-5; test: Bacterial growth in MHB; assay type: cell-based, Staphylococcus aureus
Procedure: as §2

[5] = test system: β-lactamase activity of S. aureus SHY97-4320; test: β-lactamase activity, nitrocefin assay, bovine LF/LFC; assay type: cell-based; settings: 8-μg/ml penicillin G alone
Procedure: The effects of sub-MICs of LF (1 mg/ml), LFC (32 and 64 μg/ml) alone or in combination with ampicillin (4μg/ml) or penicillin G (8 μg/ml) were evaluated on the β-lactamase activity of S. aureus strains SHY97-4320 and PC-1. The chromogenic cephalosporin nitrocefin (Becton Dickinson, Microbiology, Cockeysville, Md.) was used in a quantitative spectrophotometric assay. Bacterial cells were first exposed during 4 and 22-h to drugs in broth. The number of bacteria (cfu/ml) were determined and cells aliquots were centrifuged at each point in time. The pellets were suspended in 10 mM HEPES buffer (pH 7.4) to an OD415 nm of 1 for PC-1 and 2 for SHY97-4320. Nitrocefin (100 μM) was added to 100 μl of cells in a final volume of 1 ml. Hydrolysis was measured at 486 nm on spectrophotometer. β-lactamase activity was expressed as ΔO.D.486 nm/min and corrected for bacterial OD.

S. aureus ATCC 25923 [6] = test: Cell morphology by transmission electron microscopy; assay type: cell-based, Staphylococcus aureus
Procedure: as §1

[7] = sub-MIC penicillin G (1/4 to 1/16 MIC) with 1 mg/ml LF, P<0.01

CC1(C)S[C@@H]2[C@H](NC(=O)Cc3ccccc3)C(=O)N2[C@H]1C(=O)O [penicillin G, Penicillin G]
cell morphology (S. aureus PC-1 [1]): no effects on morphology | growth (S. aureus PC-1 [2]; penicillin G combined with 64 μg/ml LFC (⅛ MIC)): Complete growth inhibition | growth rate (S. aureus PC-1 [2]; sub-MIC of penicillin G alone): did not significantly affect growth rate | growth rate (S. aureus PC-1 [2]; [7]): important growth rate reductions | growth (S. aureus ATCC 25923 [3]; penicillin G combined with 32 μg/ml LFC (⅛ MIC)): Complete growth inhibition | growth rate (S. aureus ATCC 25923 [3]; [7]): important growth rate reductions | effect of addition of iron on growth inhibition ([4]; combination of penicillin to LF): did not affect | growth inhibitory activity of penicillin ([4]; in the presence of LF, P<0.01): enhanced | growth ([4]; penicillin G alone, P<0.001): reduced the growth | β-lactamase activity [5]: a large increase in β-lactamase activity | cell morphology (S. aureus ATCC 25923 [6]; penicillin G 0.0078 μg/ml alone, 18-h): induced formation of large symmetrically arranged pseudomulticellular staphylococci | cell morphology (S. aureus ATCC 25923 [6]; penicillin G 0.0078 μg/ml with LF 9.1 μg/ml): asymmetrically arranged pseudomulticellular staphylococci were formed
